Key:
[1] = test system: rat aconitine-induced arrhythmia; format: in vivo, rats; settings: hydrochloride salts; for Prophylactic inde: ratio LD50:ED50, rats; for Therapeutic ind: ratio LD50:ED, rats
[2] = test system: acute myocardial ischemia induced arrhythmia; assay: acute myocardial ischemia induced arrhythmia model (coronary artery ligation) in anesthetized rats; format: in vivo
Description: 1. An acute myocardial ischemia induced arrhythmia model was obtained by conducting chest opening to expose the heart and […] of the anterior descending branch of the coronary artery in anesthetized rats (“Methods in Pharmacological Experiments”, Second Edition, p. 1022, People's Medical Publishing House, Beijing, 1991).

[3] = test system: beiwutine induced rat arrhythmia; assay: beiwutine induced rat arrhythmia model; format: in vivo
[4] = test system: ouabain induced guinea pig arrhythmia; assay: ouabain induced guinea pig arrhythmia model; format: in vivo
arrhythmia patients = settings: cited from earlier work

| Compound | Prophylactic inde [1] | Therapeutic ind [1] | also measured |
| --- | --- | --- | --- |
| O=S(=O)(Nc1cc(CN2CCCCC2)c(O)c(CN2CCCCC2)c1)c1cccc2ccccc12 [Compound B-87836, N-[3,5-bis(1-Piperidinomethyl)-4-hydroxy]phenyl-1-naphthalenesulfonamide] | 33.5 | 9.7 |  |
| Oc1c(CN2CCCC2)cc(Nc2ncnc3ccccc23)cc1CN1CCCC1 [changrolin] |  |  | inhibition of the incidence of ventrical premature beats [2]: 50%; ED50 [3]: 3 mg/kg; amount of ouabain used for inducing ventrical premature beats, ventricular tachycardia and ventricular fibrillation [4]: significantly increase; ventricular premature beats (arrhythmia patients; 2-3 days after oral administration, patients suffering from arrhythmia): disappear; ventricular premature beats and ventricular tachycardia (arrhythmia patients; i.v. injection or instillation, patients): significant reduction or even disappearence; skin side effect (arrhythmia patients; oral administration for over one month, patients, retrogresses after ceasing administration): reversible pigmentation on the skin |
| N-[3,5-bis(1 -Pyrrolidinomethyl)-4-hydroxyl]benzyl-4-chlorobenzenesulfonamide [Compound B-87829] | 55 | 8.6 |  |
| N-[3,5-bis(1-Pyrrolidinomethyl)-4-hydroxy]phenyl-4-chlorobenzenesulfonamide [Compound B-86810] | 5.3 |  |  |
| N-[3,5-bis(1-Pyrrolidinomethyl)-4-hydroxy]phenyl-N-ethyl-4-toluenesulfonamide [Compound B-86809] | 1.1 | 4.0 |  |
| N-[3,5-bis(1-Pyrrolidinomethyl)-4-hydroxy]phenyl-N-methyl-4-acetamidobenzenesulfonamide [Compound B-87827] | 3.0 | 2 |  |

— patent publication US6605635B1, “N-substituted benzyl or phenyl aromatic sulfamides compounds and the use thereof” (Shanghai Institute of Materia Medica Chinese Academy of …, priority 1999, dated 2003)
